Results published in PMC11561622, “Evaluating Antimalarial Proteasome Inhibitors for Efficacy in Babesia Blood Stage Cultures” (ACS Omega, 2024).

How the values were obtained:
[1] = system: B. divergens proteasome β5 subunit; assay type: biochemical, Babesia divergens; settings: Suc-LLVY-amc; for proteasome activity relative to activity with PA28α: Buffer B
Procedure: (§1) B. divergens and B. microti protein lysates were prepared from infected red blood cells. Briefly, red blood cells were lysed with 0.15% saponin prepared in 1× Phosphate-Buffered Saline (PBS), pH 7.5, to release intact parasites. Parasites were washed with 1× PBS, pH 7.5 (PBS), by centrifugation and the pellets were stored at −80 °C in PBS plus 20% glycerol. To prepare protein lysates for enzymatic assays, parasites were thawed and transferred to 50 mM HEPES (pH 7.5), 10 μM E64, 100 μM AESBF, 1 μM Pepstatin A, and 1 mM DTT (all Sigma-Aldrich). Cells were ruptured by ultrasonication with an amplitude of 0.5 for 3 cycles of 15 s on ice. To prepare protein lysates for activity-based probing and proteasome purification, parasites were thawed and transferred to 20 mM Tris-HCl, pH 7.5, 1 mM DTT, 10 μM E64, and 5% glycerol. The lysate was sonicated on ice for 3 times and clarified by centrifugation at 17,000g for 10 min at 4 °C.
To further improve the detection of the β5 subunit activity with the Suc-LLVY-amc substrate of the Babesia proteasome as previously published,[27] we aimed to further optimize assay conditions. However, to reduce the number of experimental animals in the study, assay conditions were optimized using protein lysates of B. divergens, which can be grown in vitro, instead of B. microti lysates, which need to be maintained in mice. […] Assay conditions were optimized in 50 μL volumes in round-bottom 96-well plates. Two assay buffers were evaluated. Buffer A, as described previously,[27] consists of 20 mM HEPES, pH 8, 1 mM ATP, and 1 μM E64, while Buffer B consists of 50 mM HEPES, pH 7.5, 5 mM ATP, 10 μM E64, 100 μM AESBF, 1 μM Pepstatin A, and 1 mM DTT. Buffers A and B were tested with either 0.02% SDS or 6.67 ng of PA28 as activators of the proteasome activity. […] The release of the AMC fluorophore was monitored at 37 °C in a Synergy HTX multimode reader (BioTek) with excitation and emission wavelengths set to 340 and 460 nm, respectively.
Proteasome activity in B. microti and B. divergens lysates was screened in the presence of carmaphycin B (CPB) and numerous analogs that were previously designed to target the P. falciparum 20S proteasome.[30] A pool of lysates was made for each species to ensure that equal amounts of the lysates were used in each inhibition reaction. Inhibitors were transferred to black 384-well plates with the ATS acoustic transfer system (ATS-100, Biosera). Lysates were incubated with inhibitors for 30 min at room temperature and activity was assayed in 30 μL reactions. Each reaction mixture contained 5 μL of Babesia lysate, 10 nL of the inhibitor (final concentration of 133.33 nM), and 25 μL of assay buffer with 25 μM substrate succinyl-Leu-Leu-Val-Tyr-7-amido-4-methylcoumarin (Suc-LLVY-amc). The release of the AMC fluorophore was monitored at 37 °C in a Synergy HTX multimode reader (BioTek Instruments, Winooski, VT) with excitation and emission wavelengths set to 340 and 460 nm, respectively. Activity was quantified as RFU per second and normalized to the DMSO control reactions.

[2] = system: endogenous polyubiquitinated proteins in B. divergens; assay: Western blot of polyubiquitinated proteins in treated B. divergens cultures; assay type: cell-based, Babesia divergens; settings: 200 nM, 24 h, anti-Ubiquitin K48 western blot, vs 0.1% DMSO
Procedure: To assess the on-target effect of proteasome inhibition, protein lysates of B. divergens isolated from bovine erythrocyte cultures were evaluated for the accumulation of polyubiquitinated proteins. The B. divergens cultures underwent two 12 h treatments (totaling 24 h) with 200 nM of the inhibitor in culture medium. Parasites were released from RBCs and protein lysates were prepared as described above. The resulting samples were then centrifuged at 15,000g for 15 min at 4 °C and protein concentrations of the resulting supernatant were determined using Bradford assay.[29] Samples were prepared for SDS-PAGE in reducing Laemmli buffer supplemented with β-mercaptoethanol. Ten micrograms of protein was applied per lane and proteins were separated on gradient (4–15%) Criterion TGX Stain-Free Precast gels (BioRad) in Tris-Glycine-SDS running buffer (25 mM Tris, 192 mM glycine, and 0.1% (w/vol) SDS, pH 8.3) and visualized using TGX stain-free chemistry (BioRad). […] After washing (3 × 10 min) in PBS-T, signals were detected using Clarity Max Western ECL substrate (BioRad), visualized using a ChemiDoc MP imager, analyzed, and adjusted using the ImageLab freeware (BioRad).

B. divergens = system: B. divergens; design: method as in PMID 30103207; settings: bovine erythrocyte cultures, cited from earlier work
[3] = system: B. microti proteasome β5 subunit; assay: β5 proteasome activity in B. microti lysates (Suc-LLVY-amc); assay type: biochemical, Babesia microti; settings: 133.33 nM inhibitor, relative to DMSO
Procedure: as §1
To further improve the detection of the β5 subunit activity with the Suc-LLVY-amc substrate of the Babesia proteasome as previously published,[27] we aimed to further optimize assay conditions. However, to reduce the number of experimental animals in the study, assay conditions were optimized using protein lysates of B. divergens, which can be grown in vitro, instead of B. microti lysates, which need to be maintained in mice. […] Two assay buffers were evaluated. […] The release of the AMC fluorophore was monitored at 37 °C in a Synergy HTX multimode reader (BioTek) with excitation and emission wavelengths set to 340 and 460 nm, respectively.
Proteasome activity in B. microti and B. divergens lysates was screened in the presence of carmaphycin B (CPB) and numerous analogs that were previously designed to target the P. falciparum 20S proteasome.[30] […] The release of the AMC fluorophore was monitored at 37 °C in a Synergy HTX multimode reader (BioTek Instruments, Winooski, VT) with excitation and emission wavelengths set to 340 and 460 nm, respectively. Activity was quantified as RFU per second and normalized to the DMSO control reactions.

[4] = system: catalytic subunits of Bd20S; assay: Activity-based probe labeling (Me4BodipyFL-Ahx3Leu3VS) of Bd20S catalytic subunits; assay type: binding, Babesia divergens; settings: lysates from CFZ- and CPB-treated cells, vs vehicle
β5 subunit of Bd20S = assay: Fluorogenic kinetic assay of enriched Bd20S with PA28α and the β5 substrate Ac-FnKL-amc (50 mM HEPES pH 7.5, 1 mM DTT), no preincubation stated, rate of amc release read between 60 and 90 min, 8 µL volume.; assay type: biochemical; settings: n = 3
Procedure: (§2) To assess the enzyme activity, 8 ng of purified preparation was preincubated with 0 to 4000 nM recombinant human PA28α for 1 h at room temperature (RT). The enzyme activity was then assayed with 50 μM Suc-LLVY-amc in 50 mM HEPES, pH 7.5, and 1 mM DTT in the presence of 250 nM PA28α. To evaluate the substrate specificity for β5, β2, and β1 subunits, a set of available proteasome substrates was screened that included Suc-LLVY-amc, Z-VLR-amc and Z-LLE-amc, Ac-FnKL-amc, Ac-nPnD-amc, Ac-RYFD-amc, Ac-FRSR-amc, and Ac-GWYL-amc. Bd20S was initially activated with PA28α and the rate of release of 7-amino-4-methyl coumarin (amc) was quantified over time following addition of the substrates. For control, 6 μM marizomib (MZB, MedChemExpress) was used to ensure substrate cleavage by proteasome. For inhibition studies, IC50 values were measured using presteady-state enzyme kinetics. Five or 100 nL of inhibitor at concentrations ranging from 10 mM to 170 nM was dispensed using the ECHO 650 liquid handler (Beckman). Subsequently, 4 μL of 100 μM substrate was added, followed by 4 μL of Bd20S, and the release of amc was immediately measured. The IC50 values were calculated from the fluorescence units per second (RFU/s) recorded between 60 and 90 min after the reaction. […] Data were analyzed and plotted using GraphPad software.

β2 subunit of Bd20S = assay: Fluorogenic kinetic assay of enriched Bd20S with PA28α and the β2 substrate Z-VLR-amc (50 mM HEPES pH 7.5, 1 mM DTT), no preincubation stated, rate of amc release read between 60 and 90 min, 8 µL volume.; assay type: biochemical; settings: n = 3
Procedure: as §2

β1 subunit of Bd20S = assay: Fluorogenic kinetic assay of enriched Bd20S with PA28α and the β1 substrate Ac-nPnD-amc (50 mM HEPES pH 7.5, 1 mM DTT), no preincubation stated, rate of amc release read between 60 and 90 min, 8 µL volume.; assay type: biochemical; settings: n = 3
Procedure: as §2

Bd20S = assay: Fluorogenic substrate screen with Bd20S/PA28α with and without marizomib; assay type: biochemical, Babesia divergens; settings: 6 μM MZB
Procedure: as §2

Q: For “PA28α: recombinant human proteasome activator PA28α (Uniprot Q06323)”, which “increase of enzyme activity by activator” value ([1]; B. divergens lysate, compared with SDS) is on record?
A: 3 fold

Q: For “PA28β: human proteasome activator subunit PA28β (BioTechne #E-382)”, which “proteasome activity relative to activity with PA28α” value ([1]; B. divergens lysate) is on record?
A: 14.41%

Q: For “PA28γ: human proteasome activator subunit PA28γ (BioTechne #E-384)”, which “proteasome activity relative to activity with PA28α” value ([1]; B. divergens lysate) is on record?
A: 12.83%

Q: Which results are given for CC(C)C[C@H](NC(=O)[C@H](CCc1ccccc1)NC(=O)CN1CCOCC1)C(=O)N[C@@H](Cc1ccccc1)C(=O)N[C@@H](CC(C)C)C(=O)[C@@]1(C)CO1 [carfilzomib]?
A: accumulation of endogenous polyubiquitinated proteins [2]: marked accumulation; concentration range significantly reducing B. divergens growth (B. divergens): 25 to 200 nM; EC50 (B. divergens; read-out: EC50 B. divergens growth): 29 nM; inhibition of β5 activity in B. microti lysate (in words) [3]: inhibited; labeling of catalytic subunits by activity-based probe [4]: significantly reduced; inhibition of β5 activity in B. divergens lysate (in words) ([1]; 133.33 nM inhibitor, relative to DMSO): completely inactivate; decrease of enzyme activity ([1]; B. divergens lysate, with PA28α): > 95%

Q: With COc1ccc(C[C@H](NC(=O)[C@H](C)NC(=O)CN2CCOCC2)C(=O)N[C@@H](Cc2ccccc2)C(=O)C2(C)CO2)cc1 (stereo in doubt) [ONX-0914] as the molecule, how does the “concentration range significantly reducing B. divergens growth” value (B. divergens) read?
A: 25 to 200 nM

Q: What does the source list for CCCCCC(=O)N[C@H](C(=O)N[C@@H](CCS(C)(=O)=O)C(=O)N[C@@H](CC(C)C)C(=O)[C@@]1(C)CO1)C(C)C [CPB, carmaphycin B]?
A: IC50 (β5 subunit of Bd20S): 27.9 nM; IC50 (β2 subunit of Bd20S): 34.3 nM; IC50 (β1 subunit of Bd20S): > 3000 nM

Q: For C[C@@]12OC(=O)[C@]1([C@@H](O)[C@@H]1C=CCCC1)NC(=O)[C@@H]2CCCl [marizomib], which “activity with all fluorogenic substrates in presence of inhibitor” value (Bd20S) is on record?
A: eliminated

Q: For CC[C@H](C)[C@H](NC(=O)[C@H]([C@@H](C)CC)N(C)C(C)=O)C(=O)N[C@H](C(=O)N[C@@H](CC(C)C)C(=O)[C@@]1(C)CO1)[C@@H](C)O [epoxomicin], which “concentration range significantly reducing B. divergens growth” value (B. divergens) is on record?
A: 25 to 200 nM
